From ChEMBL document CHEMBL1132680, “A "cephalosporin-like" cyclic depsipeptide: synthesis and reaction with beta-lactam-recognizing enzymes” (Bioorg Med Chem Lett, 1999) come the findings set out here.

Bounds are passed on as bounds.

As usually defined, the Km is the concentration of substrate that gives half-maximal velocity.

Assay type in all cases: ADME
The nature of data set [1]: Kcat against class A TEM beta-lactamase catalyzed lactone hydrolysis.
Data set [2] in a line: Km against class A PCI beta-lactamase catalyzed lactone hydrolysis.
The nature of data set [3]: Kcat/Km against class A TEM beta-lactamase catalyzed lactone hydrolysis.
Data set [4] can be described thus: Kcat against class C P99 beta-lactamase catalyzed lactone hydrolysis.
Data set [5] in a line: Km against class A TEM beta-lactamase catalyzed lactone hydrolysis.
Data set [6] can be described thus: Kcat/Km against class A PCI beta-lactamase catalyzed lactone hydrolysis.
Data set [7] is described as follows: Kcat against class A PCI beta-lactamase catalyzed lactone hydrolysis.
Data set [8] is described as follows: Km against class C P99 beta-lactamase catalyzed lactone hydrolysis.
Data set [9] in a line: Kcat/Km against class C P99 beta-lactamase catalyzed lactone hydrolysis.

Regarding `O=C(Cc1ccccc1)N[C@H]1Cc2cccc(C(=O)O)c2OC1=O`, the k cat came to 2.07 s⁻¹ in [1], 5.4 s⁻¹ in data set [4] and 0.0047 s⁻¹ in data set [7]. Besides, the figures for the Michaelis constant (Km) in data set [2], in [5] and in [8] were 0.304 µM, 53 µM and 620 µM, respectively. Besides, the Ratio came to 39000 M⁻¹ s⁻¹ in [3], 1.55 M⁻¹ s⁻¹ in data set [6] and 8700 M⁻¹ s⁻¹ in data set [9].

Consider `O=C(Cc1ccccc1)N[C@@H](Cc1cccc(C(=O)O)c1O)B(O)O`, for which the figures for the k cat in data set [1], in [4] and in [7] were over 1.2 s⁻¹, 5.6 s⁻¹ and 0.024 s⁻¹, respectively. For the same molecule, the Michaelis-Menten constant (Km) in [2] is 15 µM; in data set [5], over 1000 µM; in data set [8], 290 µM. In addition, the results for the Ratio in data set [3], in data set [6] and in data set [9] were 1200 M⁻¹ s⁻¹, 1.6 M⁻¹ s⁻¹ and 19000 M⁻¹ s⁻¹, respectively.

With `CC(=O)OCC1=C(C(=O)O)N2C(=O)[C@@H](NC(=O)Cc3cccs3)[C@H]2SC1` [CEPHALOTHIN], the results for the k cat in data set [1], in data set [4] and in data set [7] were 120 s⁻¹, 200 s⁻¹ and 0.001 s⁻¹, respectively. The values for the Km in data set [2], in data set [5] and in [8] were at most 1 µM, 200 µM and 9 µM, respectively. The Ratio in data set [3] was 600000 M⁻¹ s⁻¹; in data set [6], “>= 1000 M-1 s-1”; in [9] it was 22000000 M⁻¹ s⁻¹.
